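Results reflect a 48-hour exposure of cells in 96-well plates to compound at five concentrations. GI50: concentration for 50% inhibition of growth. At the TGI there is no net growth.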
How the values were obtained:
Test in all cases: inhibition of tumour cell growth, NCI panel, 48 h
DMS 273 small cell lung = tested on: DMS 273 small cell lung
M19-MEL melanoma = tested on: M19-MEL melanoma
DMS 114 small cell lung = tested on: DMS 114 small cell lung
LXFL 529 NSCLC = tested on: LXFL 529 NSCLC
XF 498 CNS = tested on: XF 498 CNS
PC-3 prostate = tested on: PC-3 prostate
DU-145 prostate = tested on: DU-145 prostate
NCI/ADR-RES ovarian = tested on: NCI/ADR-RES ovarian
MDA-MB-231 breast = tested on: MDA-MB-231 breast
MCF7 breast = tested on: MCF7 breast

SMILES: O=C1NC2(CCCCC2)C2CCCCC(O)C12 (centres undefined)
- TGI (DMS 273 small cell lung): > 100 µM
- TGI (M19-MEL melanoma): > 100 µM
- TGI (DMS 114 small cell lung): > 100 µM
- TGI (LXFL 529 NSCLC): > 100 µM

SMILES: COc1cccc(NC(=O)CC(=O)n2nc(C)c(N=Nc3ccccc3)c2C)c1
- TGI (DMS 273 small cell lung): > 100 µM
- TGI (XF 498 CNS): > 100 µM
- TGI (M19-MEL melanoma): > 100 µM
- TGI (DMS 114 small cell lung): > 100 µM
- TGI (LXFL 529 NSCLC): > 100 µM

SMILES: Cc1nc2c(nc1C)C(=O)c1ccccc1C2=O
- TGI (PC-3 prostate): 30.3 µM
- TGI (DMS 273 small cell lung): 15.3 µM
- TGI (DU-145 prostate): 2.72 µM
- TGI (NCI/ADR-RES ovarian): 17.1 µM
- TGI (MDA-MB-231 breast): 35.6 µM
- TGI (M19-MEL melanoma): 1.07 µM
- TGI (MCF7 breast): 3.59 µM
- TGI (DMS 114 small cell lung): > 46 µM
- TGI (LXFL 529 NSCLC): > 58.3 µM

SMILES: COc1ccc(NC(=O)c2cc(OC)cc(OC)c2)cc1
- TGI (DMS 273 small cell lung): > 100 µM
- TGI (XF 498 CNS): > 100 µM
- TGI (DMS 114 small cell lung): > 100 µM
- TGI (LXFL 529 NSCLC): > 100 µM

SMILES: CN(CC(=O)O)S(=O)(=O)c1ccc2ccccc2c1
- TGI (DMS 273 small cell lung): > 100 µM
- TGI (XF 498 CNS): > 100 µM
- TGI (M19-MEL melanoma): > 100 µM
- TGI (LXFL 529 NSCLC): > 100 µM

SMILES: CC1(C)COC(c2ccc(C(F)(F)F)cc2C(O)c2ccc3ccccc3c2)=N1 (centres undefined)
- GI50 (DMS 273 small cell lung): > 100 µM
- TGI (DMS 273 small cell lung): > 100 µM
- TGI (XF 498 CNS): > 100 µM
- GI50 (M19-MEL melanoma): > 100 µM
- TGI (M19-MEL melanoma): > 100 µM
- GI50 (DMS 114 small cell lung): > 100 µM
- TGI (DMS 114 small cell lung): > 100 µM
- GI50 (LXFL 529 NSCLC): > 100 µM
- TGI (LXFL 529 NSCLC): > 100 µM

SMILES: CCOC(=O)C1=C(C)CC2C(=O)OC(=O)C2C1(C)C (centres undefined)
- TGI (M19-MEL melanoma): > 100 µM
- TGI (DMS 114 small cell lung): > 100 µM
- TGI (LXFL 529 NSCLC): > 100 µM

SMILES: CC1=C(C(=O)Nc2ccccc2C)C(c2ccco2)C(C(=O)Nc2ccccc2C)=C(C)N1C
- TGI (XF 498 CNS): > 100 µM
- TGI (M19-MEL melanoma): > 100 µM
- TGI (DMS 114 small cell lung): > 100 µM
- TGI (LXFL 529 NSCLC): > 100 µM

SMILES: CCOC(=O)c1ncn2c1[nH]c(=S)c1ccccc12
- TGI (DMS 273 small cell lung): > 100 µM
- TGI (M19-MEL melanoma): > 100 µM
- TGI (DMS 114 small cell lung): > 100 µM
- TGI (LXFL 529 NSCLC): > 100 µM

SMILES: COc1ccc(/C=C\c2cc(OC)c3c(c2)OCO3)c(O)c1O
- TGI (DMS 273 small cell lung): > 100 µM
- TGI (XF 498 CNS): 26.6 µM
- TGI (M19-MEL melanoma): 31.1 µM
- TGI (DMS 114 small cell lung): 8.81 µM
- TGI (LXFL 529 NSCLC): 3.74 µM

SMILES: COc1ccccc1NC(=O)CC(=O)n1nc(C)c(N=Nc2ccccc2C(=O)O)c1C
- TGI (DMS 273 small cell lung): > 100 µM
- TGI (XF 498 CNS): > 100 µM
- TGI (M19-MEL melanoma): > 100 µM
- TGI (DMS 114 small cell lung): > 100 µM
- TGI (LXFL 529 NSCLC): > 100 µM

SMILES: COc1ccc(-c2cc(=O)c3ccc(O)cc3o2)c(OC)c1OC
- TGI (XF 498 CNS): > 100 µM
- TGI (M19-MEL melanoma): > 100 µM
- TGI (DMS 114 small cell lung): > 100 µM
- TGI (LXFL 529 NSCLC): > 100 µM

SMILES: O=C(/C=C/c1ccccc1Cl)c1ccc(Cl)c(Cl)c1
- TGI (DMS 273 small cell lung): 37.5 µM
- TGI (M19-MEL melanoma): 29.8 µM
- TGI (LXFL 529 NSCLC): 29.6 µM

SMILES: CC(=O)OC1COC(n2c(=S)n(-c3ccc(C)cc3)c(=O)c3ccccc32)C(OC(C)=O)C1OC(C)=O (centres undefined)
- TGI (DMS 273 small cell lung): > 100 µM
- TGI (XF 498 CNS): > 100 µM
- TGI (M19-MEL melanoma): > 100 µM
- TGI (DMS 114 small cell lung): > 100 µM
- TGI (LXFL 529 NSCLC): > 100 µM

SMILES: COc1ccc2nc3cc(Cl)ccc3c(Sc3ccccc3[N+](=O)[O-])c2c1
- TGI (DMS 273 small cell lung): > 100 µM
- TGI (XF 498 CNS): 97.8 µM
- TGI (M19-MEL melanoma): > 100 µM
- TGI (DMS 114 small cell lung): > 100 µM
- TGI (LXFL 529 NSCLC): > 100 µM

SMILES: NS(=O)(=O)c1ccccc1C(=O)N/N=C(\c1nc2ccc([N+](=O)[O-])cc2[nH]c1=O)C(O)c1ccc([N+](=O)[O-])cc1 (centres undefined)
- TGI (XF 498 CNS): > 100 µM
- TGI (DU-145 prostate): > 100 µM
- TGI (M19-MEL melanoma): > 100 µM
- TGI (LXFL 529 NSCLC): > 100 µM

SMILES: CC1CN1P1(N2CC2C)=NP(N2CC2C)(N2CC2C)=NP(N2CC2C)(N2CC2C)=N1 (centres undefined)
- TGI (DMS 273 small cell lung): > 50 µM
- TGI (XF 498 CNS): > 50 µM
- TGI (M19-MEL melanoma): > 50 µM
- TGI (LXFL 529 NSCLC): > 50 µM

SMILES: O=C(O)C(Cc1ccccc1)N1C(=O)N/C(=C\c2ccc(F)cc2)C1=O (centres undefined)
- TGI (DMS 273 small cell lung): > 100 µM
- TGI (M19-MEL melanoma): > 100 µM
- TGI (LXFL 529 NSCLC): > 100 µM

SMILES: COc1ccc2c(c1)C1(C=N2)CCN(C(C)=O)CC1
- TGI (DMS 273 small cell lung): > 100 µM
- TGI (M19-MEL melanoma): > 100 µM
- TGI (DMS 114 small cell lung): > 100 µM
- TGI (LXFL 529 NSCLC): > 100 µM

SMILES: NC(CCc1nc(-c2ccc(Cl)cc2)cs1)C(=O)O (centres undefined)
- TGI (DMS 273 small cell lung): > 100 µM
- TGI (M19-MEL melanoma): > 100 µM
- TGI (LXFL 529 NSCLC): > 100 µM

SMILES: C=CCc1cc(OC)c2c(c1)C(O)CC(c1ccc(OC)c(OC)c1)O2 (centres undefined)
- TGI (DMS 273 small cell lung): > 100 µM
- TGI (M19-MEL melanoma): > 100 µM
- TGI (DMS 114 small cell lung): > 100 µM
- TGI (LXFL 529 NSCLC): > 100 µM

SMILES: O=C1C2=C(SCCS2)C(=O)c2ccccc21
- TGI (DMS 273 small cell lung): 3.31 µM
- TGI (XF 498 CNS): 3.01 µM
- TGI (M19-MEL melanoma): 0.616 µM
- TGI (DMS 114 small cell lung): 2.09 µM
- TGI (LXFL 529 NSCLC): 3.02 µM

SMILES: CC(C)=CCCc1c(C)ccc2c1C(=O)C(=O)C(C(C)C)=C2
- TGI (DMS 273 small cell lung): 7.47 µM
- TGI (XF 498 CNS): 7.15 µM
- TGI (M19-MEL melanoma): 7.87 µM
- TGI (DMS 114 small cell lung): 9.36 µM
- TGI (LXFL 529 NSCLC): 6.65 µM

SMILES: CC(=O)N1[C@H](C(=O)O)CS[C@H]1c1ccncc1
- TGI (M19-MEL melanoma): > 100 µM
- TGI (DMS 114 small cell lung): > 100 µM
- TGI (LXFL 529 NSCLC): > 100 µM

SMILES: O=[S@@]1Nc2ccc(Br)cc2S1
- TGI (DMS 273 small cell lung): > 100 µM
- TGI (XF 498 CNS): > 100 µM
- TGI (M19-MEL melanoma): > 100 µM
- TGI (LXFL 529 NSCLC): > 100 µM

SMILES: CC(=O)OC(C)C(=O)C1c2cccc(O)c2C(=O)c2c(O)cc(C)cc21 (centres undefined)
- TGI (DMS 273 small cell lung): 1.85 µM
- TGI (XF 498 CNS): 0.465 µM
- TGI (M19-MEL melanoma): 1.23 µM
- TGI (DMS 114 small cell lung): 0.497 µM

SMILES: COc1cc2nc(C)nc(N[C@H](C)c3cc(N)cc(C(F)(F)F)c3)c2cc1O[C@H]1CCOC1
- GI50 (PC-3 prostate): 10.4 µM
- TGI (PC-3 prostate): 23.4 µM
- GI50 (DU-145 prostate): 16.2 µM
- TGI (DU-145 prostate): 30.5 µM
- GI50 (NCI/ADR-RES ovarian): 18.3 µM
- TGI (NCI/ADR-RES ovarian): 60.9 µM
- GI50 (MDA-MB-231 breast): 12.1 µM
- TGI (MDA-MB-231 breast): 28.6 µM
- GI50 (MCF7 breast): 12.9 µM
- TGI (MCF7 breast): 31.3 µM

SMILES: O=C(O)CCSC(=O)Nc1cccc(F)c1
- TGI (DMS 273 small cell lung): > 100 µM
- TGI (DMS 114 small cell lung): > 100 µM
- TGI (LXFL 529 NSCLC): > 100 µM

Source: PubChem BioAssay (NCI)
